From ChEMBL document CHEMBL5244231, “Total synthesis, chemical modification and structure-activity relationship of bufadienolides” (Eur J Med Chem, 2020)

Key:
HeLa [1] = test: Antiproliferative activity against human HeLa cells assessed as cell growth inhibition by MTT assay; format: functional, cell-based
Androgen receptor = molecular target: T1, Androgen receptor (Homo sapiens, UniProt P10275); test: Binding affinity to AR (unknown origin) incubated for 4 hrs by fluorescence polarization assay
T1 sequence (P10275 whole entry): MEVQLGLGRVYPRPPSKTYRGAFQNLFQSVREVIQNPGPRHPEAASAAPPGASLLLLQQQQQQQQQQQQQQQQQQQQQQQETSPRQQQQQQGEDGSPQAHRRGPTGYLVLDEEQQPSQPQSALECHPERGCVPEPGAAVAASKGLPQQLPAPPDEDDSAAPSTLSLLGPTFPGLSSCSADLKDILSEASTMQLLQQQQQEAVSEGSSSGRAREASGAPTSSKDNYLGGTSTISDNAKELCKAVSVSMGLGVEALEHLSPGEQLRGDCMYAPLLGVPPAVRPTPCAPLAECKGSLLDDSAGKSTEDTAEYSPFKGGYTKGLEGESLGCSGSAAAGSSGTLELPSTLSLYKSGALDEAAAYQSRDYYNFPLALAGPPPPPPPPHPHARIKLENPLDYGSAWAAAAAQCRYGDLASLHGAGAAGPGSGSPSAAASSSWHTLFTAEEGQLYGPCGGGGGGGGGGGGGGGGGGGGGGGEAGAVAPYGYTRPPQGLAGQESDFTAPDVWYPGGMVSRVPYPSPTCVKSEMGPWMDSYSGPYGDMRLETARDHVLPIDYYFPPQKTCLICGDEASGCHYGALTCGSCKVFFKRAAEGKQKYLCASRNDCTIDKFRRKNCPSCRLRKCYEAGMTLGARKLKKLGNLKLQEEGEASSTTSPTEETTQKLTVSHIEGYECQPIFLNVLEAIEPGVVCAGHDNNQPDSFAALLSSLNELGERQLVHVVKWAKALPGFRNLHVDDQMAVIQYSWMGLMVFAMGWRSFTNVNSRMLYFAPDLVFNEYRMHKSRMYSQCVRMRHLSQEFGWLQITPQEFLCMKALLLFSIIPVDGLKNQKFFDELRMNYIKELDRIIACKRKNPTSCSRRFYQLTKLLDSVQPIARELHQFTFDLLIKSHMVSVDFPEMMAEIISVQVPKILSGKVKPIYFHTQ

[2] = molecular target: Sodium/potassium-transporting ATPase; test: Inhibition of NA+/K+ ATPase (unknown origin) activity; format: protein-complex assay, Homo sapiens
[3] = molecular target: Sodium/potassium-transporting ATPase; test: Inhibition of NA+/K+ ATPase (unknown origin) activity assessed as inhibition constant; format: protein-complex assay, Homo sapiens
LNCaP [4] = test: Antiproliferative activity against human LNCaP cells assessed as cell growth inhibition; format: functional, cell-based
DU-145 = test: Antiproliferative activity against human DU-145 cells assessed as cell growth inhibition; format: functional, cell-based
PC-3 [5] = test: Antiproliferative activity against human PC-3 cells assessed as cell growth inhibition; format: functional, cell-based
HeLa [6] = test: Antiproliferative activity against human HeLa cells assessed as cell growth inhibition incubated for 72 hrs by MTT assay; format: functional, cell-based
A549 = test: Antiproliferative activity against human A549 cells assessed as cell growth inhibition incubated for 72 hrs by MTT assay; format: functional, cell-based; conditions: A549, 72 h
LNCaP [7] = test: Antiproliferative activity against human LNCaP cells assessed as cell growth inhibition incubated for 48 hrs by MTT assay; format: functional, cell-based
PC-3 [8] = test: Antiproliferative activity against human PC-3 cells assessed as cell growth inhibition incubated for 48 hrs by MTT assay; format: functional, cell-based; conditions: PC-3, 48 h
HT-1080 = test: Antiproliferative activity against human HT-1080 cells assessed as cell growth inhibition by MTT assay; format: functional, cell-based
PC-3 [9] = test: Antiproliferative activity against human PC-3 cells assessed as cell growth inhibition by MTT assay; format: functional, cell-based
Jurkat = test: Antiproliferative activity against human Jurkat cells assessed as cell growth inhibition by MTT assay; format: functional, cell-based
MV4-11 [10] = test: Antitumor activity in human MV4-11 cells xenografted in mouse assessed as tumor growth inhibition at 2 mg/kg, iv administered every other day for 21 days relative to control; format: functional; conditions: MV4-11, 504 h, time 21 day
HepG2 = test: Antiproliferative activity against human HepG2 cells assessed as cell growth inhibition by MTT assay; format: functional, cell-based
MCF7 = test: Antiproliferative activity against human MCF7 cells assessed as cell growth inhibition by MTT assay; format: functional, cell-based
AGS = test: Antiproliferative activity against human AGS cells assessed as cell growth inhibition by MTT assay; format: functional, cell-based
MV4-11 [11] = test: Antitumor activity in human MV4-11 cells xenografted in mouse assessed as tumor growth inhibition at 4 mg/kg, IG administered every other day for 21 days relative to control; format: functional; conditions: MV4-11, po, 504 h, time 21 day
Daudi = test: Antiproliferative activity against human Daudi cells assessed as cell growth inhibition by MTT assay; format: functional, cell-based
MV4-11 [12] = test: Antiproliferative activity against human MV4-11 cells assessed as cell growth inhibition by MTT assay; format: functional, cell-based
NCI-H2228 = test: Antiproliferative activity against human NCI-H2228 cells assessed as cell growth inhibition by MTT assay; format: functional, cell-based

Question: With `C[C@]12CC[C@H](OC(=O)N3CCNCC3)C[C@H]1CC[C@@H]1[C@@H]2CC[C@]2(C)[C@@H](c3ccc(=O)oc3)CC[C@]12O` as the molecule, how does the IC50 (HeLa [1]) read?
Answer: Its IC50 is 0.77 nM.

Question: With `C[C@]12CC[C@H](O)CC1CCC1C3=CC[C@H](c4ccc(=O)oc4)[C@@]3(C)CCC12` (some centres undefined) as the molecule, how does the IC50 (Androgen receptor) read?
Answer: The IC50 was over 50000 nM.

Question: Which IC50 [2] does the source give for `C[C@]12CC[C@H](O)C[C@H]1CC[C@H]1C3=CC[C@H](c4ccc(=S)oc4)[C@@]3(C)CC[C@@H]12` here?
Answer: Its IC50 is 35800 nM.

Question: With `C[C@]12CC[C@H](O)C[C@H]1CC[C@@H]1[C@@H]2CC[C@]2(C)[C@@H](c3ccc(=O)[nH]c3)CC[C@]12O` as the molecule, how does the Ki [3] read?
Answer: Its Ki is 70000 nM.

Question: What about the IC50 (LNCaP [4]) of the same molecule?
Answer: The IC50 was 10000 nM.

Question: And the IC50 (DU-145)?
Answer: Its IC50 is 10000 nM.

Question: And the IC50 (PC-3 [5])?
Answer: Its IC50 is 10000 nM.

Question: Which results are given for `C[C@]12CC[C@H](OC(=O)C3CCNCC3)C[C@H]1CC[C@@H]1[C@@H]2CC[C@]2(C)[C@@H](c3ccc(=O)oc3)CC[C@]12O`?
Answer: IC50 (HeLa [6]): 0.76 nM; IC50 (A549): 0.34 nM

Question: With `CN(C)C(=O)/C=C/C1=CO[C@]23CCC1[C@@]2(C)CC[C@H]1[C@H]3CC[C@@H]2C[C@@H](O)CC[C@@]21C` as the molecule, how does the Ki [3] read?
Answer: Its Ki is 70000 nM.

Question: What about the IC50 (LNCaP [4]) of the same molecule?
Answer: Its IC50 is 10000 nM.

Question: And the IC50 (DU-145)?
Answer: Its IC50 is 10000 nM.

Question: What about the IC50 (PC-3 [5]) of the same molecule?
Answer: Its IC50 is 10000 nM.

Question: `C[C@]12CC[C@H](O)CC1CCC1=C3CC[C@H](c4ccc(=O)oc4)[C@@]3(C)CCC12` (some centres undefined) was tested. Which IC50 (LNCaP [7]) did it give?
Answer: Its IC50 is 6800 nM.

Question: What about the IC50 (PC-3 [8]) of the same molecule?
Answer: The IC50 was 16400 nM.

Question: What about the IC50 (Androgen receptor) of the same molecule?
Answer: The IC50 was over 50000 nM.

Question: And the IC50 [2]?
Answer: Its IC50 is 5600 nM.

Question: Which results are given for `C[C@]12CC[C@H](OC(=O)NC3CCNCC3)C[C@H]1CC[C@@H]1[C@@H]2CC[C@]2(C)[C@@H](c3ccc(=O)oc3)CC[C@]12O`?
Answer: IC50 (HT-1080): 0.3 nM; IC50 (PC-3 [9]): 0.3 nM; IC50 (Jurkat): 0.3 nM; inhibition in vivo at 2 mg/kg (MV4-11 [10]): 100%; IC50 (HepG2): 0.3 nM; IC50 (HeLa [1]): 0.3 nM; IC50 (MCF7): 0.3 nM; IC50 (AGS): 0.3 nM; inhibition in vivo at 4 mg/kg (MV4-11 [11]): 100%; IC50 (Daudi): 0.3 nM; IC50 (MV4-11 [12]): 0.3 nM; IC50 (NCI-H2228): 0.3 nM
